Tested on: human keratinocytes
Test: Neutral red incorporation test: cytotoxicity of cadmium chloride on human keratinocytes in culture, with or without protecting agent
Format: cell-based
Details: for protection of cells against the toxicity of cadmium chloride (in words): protecting agent at 50 and 100 μM
Description: The cytotoxic effect of cadmium on human keratinocytes in culture was evaluated by means of a technique of measuring the cell viability, known as the neutral red incorporation test (E. Borenfreund and J. A. Puerner, Tissue Culture Methods. 1984, 9: 7-9).
The study was performed on a monolayer culture of human keratinocytes obtained from plastic surgeries. The cells are inoculated on D-3 into 96-well culture dishes at a rate of 25 000 cells/cm^2 in 100 μl of culture medium (calf serum-free defined medium, NR2, Biofluids). The incubations are performed in an incubator at 37° C. under a humid atmosphere enriched with 5% CO2.
The cells are treated for 24 hours with increasing concentrations (0, 10, 25, 50, 75, 100, 150 and 200 μM) of cadmium chloride (CdCl2) alone, so as to determine its cytotoxicity. In parallel, a treatment is performed under the same conditions, but in the presence of N,N′-bis(3,4,5-trimethoxybenzyl)ethylenediamine-N,N′-diacetic acid (100 and 50 μm). The incubations are performed in an incubator at 37° C., [lacuna] % CO2 under a humid atmosphere.
At the end of the period of contact, a neutral red incorporation test is performed and the results are read on a spectrophotometer at 550 nm.
To do this, the cells are rinsed with PBS buffer in order to remove the treatment solutions; 100 μl per well of a 0.5 mg/ml neutral red solution are added to the culture medium; the mixture is incubated at 37° C. and 5% CO2, under a humid atmosphere, for three hours; the resulting mixture is rinsed with PBS; fixing is performed with formaldehyde/calcium solution for one minute; the neutral red is extracted with 100 μl/well of ethanol-acetic acid solution; the optical density is read on the spectrophotometer at 550 nm and the CdCl2 concentration, resulting in a 50% reduction in viability=IC-50, is calculated.

Row | SMILES | protection of cells against the toxicity of cadmium chloride (in words) (human keratinocytes) | protection of cells against the toxicity of cadmium chloride (in words) (human keratinocytes, listed as N,N′-dimethylethylenediamine-N,N′-diacetic acid) | factor by which the cytotoxicity of cadmium chloride decreases (protecting agent at 50 μM) | factor by which the cytotoxicity of cadmium chloride decreases (protecting agent at 100 μM) | IC50 (CdCl2 alone, 24 hours, human keratinocytes, neutral red, concentration giving 50% drop in cell viability, read-out: IC.50 of cadmium chloride without protecting agent (Mean ± SEM))
1 | COc1cc(CN(CCN(CC(=O)O)Cc2cc(OC)c(OC)c(OC)c2)CC(=O)O)cc(OC)c1OC [N,N′-bis(3,4,5-trimethoxybenzyl)ethylenediamine-N,N′-diacetic acid] | significantly protects the cells against the toxicity of this pollutant | cytotoxicity of cadmium chloride decreases significantly | 2.3 | 3.1 | –
2 | [Cl][Cd][Cl] [cadmium chloride, reference compound] | – | – | – | – | 39 µM
